The results in this text go back to US7919454B2, “Methods of treating using conjugates transported by a PEPT2 transporter” (XenoPort, Inc., priority 2001, dated 2011).

One data set has as its target T1, PEPT2 (Homo sapiens, UniProt Q16348, S640G).
T1 construct: The complete open reading frame was cloned into a Xenopus oocyte expression plasmid; expressed in transfected cells; host or cells: Xenopus oocytes injected with cRNA
T1 sequence (Q16348 1-729 S640G): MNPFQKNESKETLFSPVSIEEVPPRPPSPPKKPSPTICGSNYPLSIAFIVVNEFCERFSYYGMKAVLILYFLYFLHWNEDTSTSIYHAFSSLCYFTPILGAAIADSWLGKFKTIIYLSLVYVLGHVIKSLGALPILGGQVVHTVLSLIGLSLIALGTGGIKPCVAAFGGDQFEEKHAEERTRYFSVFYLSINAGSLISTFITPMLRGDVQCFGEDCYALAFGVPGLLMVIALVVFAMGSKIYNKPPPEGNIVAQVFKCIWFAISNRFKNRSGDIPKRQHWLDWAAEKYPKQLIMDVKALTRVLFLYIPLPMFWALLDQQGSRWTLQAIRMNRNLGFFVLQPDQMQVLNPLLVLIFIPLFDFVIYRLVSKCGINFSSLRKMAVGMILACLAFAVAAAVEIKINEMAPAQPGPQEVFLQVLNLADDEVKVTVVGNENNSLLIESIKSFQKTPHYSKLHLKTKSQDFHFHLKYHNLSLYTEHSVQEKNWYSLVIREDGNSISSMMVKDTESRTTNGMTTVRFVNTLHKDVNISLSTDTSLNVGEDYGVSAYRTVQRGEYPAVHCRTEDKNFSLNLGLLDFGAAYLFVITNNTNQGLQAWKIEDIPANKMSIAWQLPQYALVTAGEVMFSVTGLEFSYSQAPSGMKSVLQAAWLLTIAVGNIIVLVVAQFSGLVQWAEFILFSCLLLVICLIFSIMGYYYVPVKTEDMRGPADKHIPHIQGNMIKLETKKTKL
Briefly: Transport currents (Vmax vs Gly-Sar) in Xenopus oocytes transfected with PEPT2, two-electrode voltage-clamp. Type of data set: cell-based. Particulars: for Substrate preference PEPT2 versus PEPT1 (in words): comparison of PEPT2 and PEPT1 transfected oocytes. The procedure: (§1) The complete open reading frame was cloned into a Xenopus oocyte expression plasmid, linearized, and cRNA was generated by run-off transcription using the T7 polymerase. Xenopus oocytes were prepared and maintained as previously described
(§2) Transport currents were measured 2-4 days after injection using two-electrode voltage-clamp (Axon Instruments). All experiments were performed using a modified oocyte Ringers solution (90 mM NaCl, 2 mM KCl, 1.8 mM CaCl2, 1 mM MgCl2, and 10 mM NaHEPES, pH 6.8). The membrane potential of oocytes was held at −60 mV and current traces acquired using PowerLab software. Responses to compounds were measured in the presence and absence of a specific non-transported inhibitor (XP10973) for PEPT1 and PEPT2. Data are expressed as the currents that are blocked by XP10973
On the technique in general: Two-electrode voltage clamp holds a large cell at a set potential and records current.

A further data set deals with T2, PEPT1 (Homo sapiens, UniProt P46059).
T2 construct: The complete open reading frame was cloned into a Xenopus oocyte expression plasmid; expressed in transfected cells; host or cells: Xenopus oocytes injected with cRNA
T2 sequence (P46059 1-708): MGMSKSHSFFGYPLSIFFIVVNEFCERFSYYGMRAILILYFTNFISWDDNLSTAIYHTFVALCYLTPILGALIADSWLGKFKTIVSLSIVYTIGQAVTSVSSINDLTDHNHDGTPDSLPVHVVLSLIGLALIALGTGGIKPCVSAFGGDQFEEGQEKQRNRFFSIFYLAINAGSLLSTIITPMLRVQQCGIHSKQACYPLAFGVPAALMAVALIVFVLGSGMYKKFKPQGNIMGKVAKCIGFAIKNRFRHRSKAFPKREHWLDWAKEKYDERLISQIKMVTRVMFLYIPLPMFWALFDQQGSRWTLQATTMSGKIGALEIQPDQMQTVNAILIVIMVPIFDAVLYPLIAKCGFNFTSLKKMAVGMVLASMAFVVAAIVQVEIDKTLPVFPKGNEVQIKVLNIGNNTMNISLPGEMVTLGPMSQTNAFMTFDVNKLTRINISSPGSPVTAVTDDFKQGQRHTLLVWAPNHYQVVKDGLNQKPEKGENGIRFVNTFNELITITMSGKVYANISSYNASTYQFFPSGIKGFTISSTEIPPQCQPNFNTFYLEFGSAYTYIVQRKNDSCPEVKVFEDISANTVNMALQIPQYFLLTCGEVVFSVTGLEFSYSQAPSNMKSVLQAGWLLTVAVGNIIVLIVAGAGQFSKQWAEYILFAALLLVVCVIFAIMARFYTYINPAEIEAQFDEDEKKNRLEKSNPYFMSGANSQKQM
Briefly: Transport currents (Vmax vs Gly-Sar) in Xenopus oocytes transfected with PEPT1, two-electrode voltage-clamp. Type of data set: cell-based. The following applies: for Substrate quality for PEPT1 relative to Gly-Sar (in words): cells transfected with PEPT1; for PEPT1 (% Gly-Sar) drug only (Vmax) / PEPT1 (% Gly-Sar) +XP10973 (Vmax): oocytes transfected with PEPT1; for PEPT1 (% Gly-Sar) +XP10973 (Vmax): in the presence of inhibitor XP10973. The procedure:
as §1
as §2, with “(Collins, et al., 1997) and injected with 10-30 ng RNA. Transport” for “Transport”

A further data set relates to Caco-2 cells. Type of data set: in vitro ADME. The procedure:
Caco-2 cells were plated on Millipore transwell filters and allowed to differentiate for 18-22 days. Integrity of the monolayers was confirmed by lack of radiolabeled inulin transport across the monolayer. Compounds were added to the apical chamber, and the appearance of compounds in the basolateral chamber were measured at various timepoints by scintillation counting or LC/MS/MS.
FIGS. 1 and 2 show uptake of cephradine and cefadroxil by Caco-2 cells in the presence and absence of XP10973 inhibitor. […] However, as described above, cephradine and cefadroxil are poor substrates for PEPT1 and good substrates for PEPT2.

Setting [1] is: oocytes transfected with PEPT2, drug only.
[2] abbreviates: oocytes transfected with PEPT2, in the presence of inhibitor XP10973.

Where two headings read alike, the source gives them in different places. Non-standard residues stand in square brackets, D forms with d. Residues, ends and D or L forms follow the SMILES beside them. *: point of attachment. Dansyl = CN(C)c1cccc2c(S(=O)(=O)*)cccc12; Sar = CNCC(=O)O

In the case of `CC1(C)S[C@@H]2[C@H](NC(=O)[C@H](N)c3ccc(O)cc3)C(=O)N2[C@H]1C(=O)O` [Amoxacillin, amoxacillin], at PEPT2, the “PEPT2 (% Gly-Sar) +XP10973 (Vmax)” value is 15 % Gly-Sar, the “PEPT2 (% Gly-Sar) drug only (Vmax)” value is 85 % Gly-Sar and the “Substrate quality for PEPT2 relative to Gly-Sar (in words)” value is “relatively good substrates”. In addition, on PEPT1, the “Substrate quality for PEPT1 relative to Gly-Sar (in words)” value is “relatively poor susbstrates”, the “PEPT1 (% Gly-Sar) drug only (Vmax)” value was 1.3 % Gly-Sar and the “PEPT1 (% Gly-Sar) +XP10973 (Vmax)” value was 1.1 % Gly-Sar.

In the case of `N[C@@H](C(=O)N[C@@H]1C(=O)N2C(C(=O)O)=C(Cl)CS[C@H]12)c1ccccc1` [Cefaclor, cefaclor], the “Substrate quality for PEPT2 relative to Gly-Sar (in words)” value at PEPT2 (cells transfected with PEPT2) is “relatively good substrates”. Besides, the “Substrate preference PEPT2 versus PEPT1 (in words)” value at PEPT2 is “better substrates for PEPT2 than they are for PEPT1”. Also, at PEPT2 (setting [1]), the “PEPT2 (% Gly-Sar) drug only (Vmax)” value worked out at 148 % Gly-Sar. The “PEPT2 (% Gly-Sar) +XP10973 (Vmax)” value at PEPT2 (setting [2]) was 22 % Gly-Sar. At PEPT1, the “Substrate quality for PEPT1 relative to Gly-Sar (in words)” value is recorded as “relatively poor susbstrates”, the “PEPT1 (% Gly-Sar) drug only (Vmax)” value came to 4 % Gly-Sar and the “PEPT1 (% Gly-Sar) +XP10973 (Vmax)” value turned out to be 1.6 % Gly-Sar.

As for `CC1=C(C(=O)O)N2C(=O)[C@@H](NC(=O)[C@H](N)c3ccc(O)cc3)[C@H]2SC1` [Cephadroxil, cefadroxil], the “Substrate quality for PEPT2 relative to Gly-Sar (in words)” value at PEPT2 (cells transfected with PEPT2) is “relatively good substrates”. Besides, the “Substrate preference PEPT2 versus PEPT1 (in words)” value on PEPT2 is given as “better substrates for PEPT2 than they are for PEPT1”. In addition, the “PEPT2 (% Gly-Sar) drug only (Vmax)” value at PEPT2 (setting [1]) came to 96 % Gly-Sar. The “PEPT2 (% Gly-Sar) +XP10973 (Vmax)” value on PEPT2 (setting [2]) worked out at 27 % Gly-Sar. For the same molecule, on PEPT1, the “Substrate quality for PEPT1 relative to Gly-Sar (in words)” value is given as “relatively poor susbstrates”, the “PEPT1 (% Gly-Sar) drug only (Vmax)” value amounted to 18 % Gly-Sar and the “PEPT1 (% Gly-Sar) +XP10973 (Vmax)” value is 2.1 % Gly-Sar. Also, the “Uptake by Caco-2 cells (in words)” value with Caco-2 cells was “taken up”.

On to `CC1=C(C(=O)O)N2C(=O)[C@@H](NC(=O)[C@H](N)C3=CCC=CC3)[C@H]2SC1` [Cephradine, cephradine], for which, at PEPT2 (cells transfected with PEPT2), the “Substrate quality for PEPT2 relative to Gly-Sar (in words)” value is “relatively good substrates”. Also, the “Substrate preference PEPT2 versus PEPT1 (in words)” value on PEPT2 is “better substrates for PEPT2 than they are for PEPT1”. In addition, at PEPT2 (setting [1]), the “PEPT2 (% Gly-Sar) drug only (Vmax)” value came out at 159 % Gly-Sar. The “PEPT2 (% Gly-Sar) +XP10973 (Vmax)” value at PEPT2 (setting [2]) stood at 37 % Gly-Sar. Moreover, at PEPT1, the “Substrate quality for PEPT1 relative to Gly-Sar (in words)” value is “relatively poor susbstrates”, the “PEPT1 (% Gly-Sar) drug only (Vmax)” value is 3.5 % Gly-Sar and the “PEPT1 (% Gly-Sar) +XP10973 (Vmax)” value was found to be 1.9 % Gly-Sar. Further, the “Uptake by Caco-2 cells (in words)” value in the data set with Caco-2 cells is reported as “taken up”.

As for `CN(CC(=O)O)C(=O)CN` [Gly-Sar] (H-Gly-[Sar]-OH), the “PEPT2 (% Gly-Sar) drug only (Vmax)” value on PEPT2 (setting [1]) amounted to 100 % Gly-Sar. Also, the “PEPT2 (% Gly-Sar) +XP10973 (Vmax)” value at PEPT2 (setting [2]) is 12 % Gly-Sar. For the same molecule, at PEPT1, the “PEPT1 (% Gly-Sar) drug only (Vmax)” value worked out at 100 % Gly-Sar and the “PEPT1 (% Gly-Sar) +XP10973 (Vmax)” value came out at 16 % Gly-Sar.

Regarding `CC(C)C[C@H](NC(=O)[C@@H](N)CCCCNS(=O)(=O)c1cccc2c(N(C)C)cccc12)C(=O)O` [XP10973] (H-Lys(Dansyl)-Leu-OH), on PEPT2, the “Inhibition of PEPT2 transport (in words)” value is “specific inhibitor”. Also, the “Inhibition of PEPT1 transport (in words)” value at PEPT1 is “specific inhibitor”.
